The numbers were not newly measured in patent US12557816B2, “Compositions for controlling a plant disease” (NutriAg Ltd., priority 2017, dated 2026), which cites them from elsewhere.

The conditions of this data set: phosphorous acid: second dissociation; hydrogen phosphite ion: conjugate base.

As for `OP(O)O` [Phosphorous acid, phosphorous acid], the pKa entry is recorded as “about 1.3”. With “hydrogen phosphite [hydrogen phosphite (or phosphonate) ion]”, the pKa entry was “about 6.7”.
